Legend:
[1] = system: rat nucleus pulposus (NP) cell; assay: mRNA expression (real time RT-PCR) in rat NP cells treated with IL-17A under 1% oxygen; type: cell-based; conditions: 24 hours
Procedure: Nucleus pulposus cells were separated from a Sprague Dawley rat aged 11 weeks according to a method in Risbud et al (Journal of cellular biochemistry 98, 152-159, 2006; doi:10.1002/jcb.20765). In short, lumbar and coccygeal intervertebral discs of a deeply anesthetized rat were dissected under an aseptic condition, gel-like nucleus pulposus was separated from intervertebral disc annulus fibrosus (AF), the nucleus pulposus was minced and pipetted, and then the nucleus pulposus was cultured in a Dulbecco's Modified Eagle Medium (DMEM) in which 20% FBS and antibiotics were added at 20% O2, 5% CO2, and 37° C. for about 1 to 2 weeks, and then was cultured in DMEM in which 10% FBS and antibiotics were added for about 1 to 2 weeks.
The cultured rat nucleus pulposus cells were treated with 20 or 50 ng/mL of recombinant mouse IL-17A (Pepro Tech Inc., USA, #210-17) for 24 hours, expression levels of mRNAs of IL-6, COX-2, mPGES1, MMP-3, and MMP-13 were determined by real time RT-PCR according to the following procedure. Total RNA was extracted from the nucleus pulposus cells using an RNAeasy mini-column (Qiagen, Germany). Before elution from the column, RNA was treated with RNase-Free DNase I (Qiagen, Germany). The purified DNA-free RNA was transformed into cDNA using a High Capacity cDNA Reverse Transcription Kit (Applied Biosystems, USA). Template cDNA and a primer specific to each gene were added to Power SYBR Green master mix (Applied Biosystems) and an expression level of mRNA of each gene was determined using Step One Plus Real-time PCR System (Applied Biosystems). The expression level was normalized to β actin. It was verified by melting curve analysis that RT-PCR was specific and a primer dimer was not formed. […]
In (B) and (C), among the compounds of the present invention, only the compound (3) which is considered from the results of (A) described below to have the highest effect on IL-6 and COX-2 was used.
A p38 phosphorylation inhibitor “SB203580” with a concentration of 10 μM, a JNK phosphorylation inhibitor “SP600125” with a concentration of 10 μM, or an ERK phosphorylation inhibitor “PD98059” with a concentration of 10 μM was administered to rat NP cells together with recombinant mouse IL-17A with a concentration of 50 ng/ml, or alternatively, these inhibitors were not administered, and the cells were cultured under a 1% oxygen condition for 24 hours, and an expression level of mRNA of each of COX-2 and IL-6 was determined by real time RT-PCR according to the same procedure as that of [Reference Example 2]. […]

p38 = assay: Phosphorylation of MAPK factors (western blotting) in rat NP cells treated with IL-17A; type: cell-based; conditions: 50 μg/ml + IL-17A 50 ng/ml, 1% oxygen
Procedure: In rat nucleus pulposus cells subjected to treatment for 24 hours in 50 ng/mL of IL-17A in which the most remarkable increases of IL-6 and COX-2 were observed, an expression level of a protein of each of IL-6 and COX-2, and β actin used as a control was determined by western blotting according to the following procedure. The nucleus pulposus cells were placed on ice and then washed with ice-cold PBS. In order to prepare total cell proteins, the cells were lysed with a lysis buffer containing 10 mM Tris-HCl (pH 7.6), 50 mM NaCl, 5 mM EDTA, 1% Nonidet P-40, a complete protease inhibitor cocktail (Roche AG, USA), 1 mM NaF, and 1 mM Na3VO4. The proteins were fractionated by SDS-PAGE and transferred onto Immobilon-P polyvinylidene difluoride membrane (Millipore Corporation, USA). […] Western blotting data were quantified by densitometric scanning of a film using Macintosh computer software “CS Analyzer” (ATTO Corporation, Japan). […]
It is reported that IL-17A is likely to be involved in the expression of COX-2 through a MAPK pathway. Involvement of IL-17A in MAPK factors (p38, JNK, and ERK) with respect to the expression of each of COX-2 and IL-6, and influence of the compound (1) of the present invention on these MAPK factors were evaluated by the following method. […]

[2] = system: rat intervertebral disc degeneration model; assay: Rat intervertebral disc degeneration model; type: in vivo; conditions: 1 mg in 10 μL DMSO injected into degenerated disc on day 14, evaluated day 28
Procedure: A 23G needle was inserted into a caudal intervertebral disc of a 11-weeks-old male SD rat (weight: 300 to 350 g) by about 5 mm, rotated at 360°, and left for 30 seconds to cause intervertebral disc degeneration (day 0). 14 days (day 14) after being subjected to the intervertebral disc degeneration, 10 μL of a DMSO solution containing 1 mg of the compound (3) (database registration number: STK630921) was injected to the degenerated intervertebral disc (STK group=compound (3) treated group). […]
28 days (day 28) after being subjected to the intervertebral disc degeneration, the caudal vertebrae of the rats in the STK group, the Sham group, the degeneration group, and the normal group were collected, fixed in 4% PFA, and decalcified, thereby preparing sample sections. […] In each sample subjected to the immunostaining, the number of IL-6 positive cells in spots of the same area arbitrarily set at 3 or 4 locations in the intervertebral disc tissue was counted with the same magnification field of view, and an expression rate of the IL-6 positive cells with respect to a total number of cells in the same spot was calculated.

[3] = system: mouse psoriasis skin model; assay: Mouse psoriasis skin model (imiquimod cream); type: in vivo
Procedure: About 1×1.5 cm of back of 10-week-old male BJ6J mouse was shaved, and imiquimod (IMQ, a drug causing psoriasis-like dermatitis in a mouse) cream was applied every day from day 1 to day 4. From the 5th day (day 5) after the first IMQ cream application, 6 to 8 hours after the application of the IMQ cream, a DMSO solution containing 1 mg of the compound (3) (database registration name: STK630921) was applied (STK group=compound (3) treated group). The same IMQ cream and the solution of the compound (3) were applied every day from the 6th day (day 6) to the 9th day (day 9). […]
On the 10th day (day 10), skin of the mice in each of the STK group, the Sham group, the IMQ group, and the normal group was collected, and one sample obtained by hematoxylin eosin (HE) staining and one sample obtained by immunofluorescence staining using an anti-CXCL1 antibody were prepared per mouse. In the HE stained samples, for each sample, a thickness of an epidermis layer was measured at two or more locations with the same magnification field of view, and an average value was statistically analyzed (significant difference: p<0.05, n=3).

[4] = compound 50 μg/ml + IL-17A 50 ng/ml, vs IL-17A only
[5] = inhibitor 10 μM + IL-17A 50 ng/ml

Row | SMILES | expression level of mRNA of COX-2 [1, 4] | expression level of mRNA of IL-6 [1, 4] | expression level of mRNA of MMP-3 [1, 4] | expression level of mRNA of MMP-13 [1, 4] | expression level of mRNA of mPGES1 [1, 4] | also measured
1 | C[C@H](NC(=O)Cc1nnc(O)c2ccccc12)C(=O)NCC1CCC(C(=O)O)CC1 (some centres unmarked) [(1)] | excellent in the action |  |  |  |  | phosphorylation of p38 (p38; 15 minutes): reduced; phosphorylation of p38 (p38; 30 minutes, vs IL-17A single administration group): significant reduction
2 | CC(NC(=O)Cc1nnc(O)c2ccccc12)C(=O)NCC1CCC(C(=O)O)CC1 (centres unmarked) [(3)] | remarkably reduced | remarkably reduced | significantly reduced | significantly reduced | significantly reduced | expression rate of the IL-6 positive cells [2]: significantly reduced; thickness of the epidermis layer ([3]; DMSO solution containing 1 mg applied day 5 to day 9, skin collected day 10, HE staining): significantly reduced; expression of CXCL1 ([3]; DMSO solution containing 1 mg applied day 5 to day 9, skin collected day 10, immunofluorescence area): significantly reduced
3 | COc1ccc(C[C@@]2(C)NC(=O)N(CC(=O)Nc3ccc(N4CCCC4=O)cc3)C2=O)cc1OC [(5)] | significantly reduced | significantly reduced | significantly reduced | significantly reduced | significantly reduced | 
4 | CC(C)NC(=O)CCCCn1c(=O)c2ccccc2n(CC(=O)Nc2ccc3c(c2)OCO3)c1=O [(9)] |  | significantly reduced |  |  |  | 
5 | C=C(C)COc1ccc2c(C)c(CC(=O)N(C)C[C@H](O)[C@H](O)[C@H](O)[C@H](O)CO)c(=O)oc2c1C [(11)] | significantly reduced | significantly reduced | significantly reduced | significantly reduced | significantly reduced | 
6 | COc1cccc(-c2cc(=O)c3ccccc3o2)c1N [PD, PD98059, reference compound] |  |  |  |  |  | expression level of mRNA of COX-2 [1, 5]: significantly suppressed; expression level of mRNA of IL-6 [1, 5]: significantly suppressed
7 | C[S+]([O-])c1ccc(-c2nc(-c3ccncc3)c(-c3ccc(F)cc3)[nH]2)cc1 (centres unmarked) [SB, SB203580, reference compound] |  |  |  |  |  | expression level of mRNA of COX-2 [1, 5]: significantly suppressed; expression level of mRNA of IL-6 [1, 5]: significantly suppressed

From patent publication US20200392223A1, “IL-17A ACTIVITY INHIBITOR AND USE THEREOF” (TOKAI UNIVERSITY EDUCATIONAL SYSTEM, priority 2018, published 2020)
